From patent US20250352608A1, “POLYPEPTIDES HAVING ANTI-INFLAMMATORY EFFECTS AND USES THEREOF” (OneSkin, Inc., priority 2020, published 2025)

Assays:
[1] = tested on: peripheral blood mononuclear cells (PBMCs); assay: PBMC proliferation with PHA activation (MTT); type: cell-based, human; details: single agent, 5 days (Peptide 14 3.12 μM; rapamycin 100 nM; PHA 5 μg/mL)
Experimental: The effect of Peptide 14 on T cell activation was assessed by treating PBMCs stimulated with phytohaemagglutinin (PHA) with Peptide 14. PHA usually can trigger lymphocyte activation and cell division. PBMCs that were untreated with PHA or Peptide 14 served as negative control of lymphocyte activation. In the phytohaemagglutinin group, the PBMCs were activated with 5 μg/mL of PHA for 5 days. In the Peptide 14 and PHA group, the PBMCs were activated with 5 μg/mL of PHA and treated with 3.12 μM of Peptide 14 for 5 days. In the Peptide 14 group, the PBMCs were treated with 3.12 μM of Peptide 14 for 5 days. In the rapamycin group, the PBMCs were treated with 100 nM of rapamycin, a well-known immunosuppressive drug for 5 days. In the rapamycin+PHA group, the PBMCs were activated with 5 μg/mL of PHA and treated with 100 nM of rapamycin for 5 days. The viability and proliferation of PBMCs were analyzed by MTT assay. Briefly, after 5 days of treatment, the cells were incubated with […] MTT reagent for 4 hours. Then, 100 μL of DMSO was added into each well, and the absorbance was detected at 595 nm.

[2] = tested on: peripheral blood mononuclear cells (PBMCs); assay: PBMC mRNA of IFN-γ and IL-10 (RT-qPCR); type: cell-based, human; details: single agent, 5 days (Peptide 14 3.12 μM; rapamycin 100 nM; PHA 5 μg/mL)
Experimental: The effect of Peptide 14 on T cell activation was assessed by treating PBMCs stimulated with phytohaemagglutinin (PHA) with Peptide 14. PHA usually can trigger lymphocyte activation and cell division. PBMCs that were untreated with PHA or Peptide 14 served as negative control of lymphocyte activation. In the phytohaemagglutinin group, the PBMCs were activated with 5 μg/mL of PHA for 5 days. In the Peptide 14 and PHA group, the PBMCs were activated with 5 μg/mL of PHA and treated with 3.12 μM of Peptide 14 for 5 days. In the Peptide 14 group, the PBMCs were treated with 3.12 μM of Peptide 14 for 5 days. In the rapamycin group, the PBMCs were treated with 100 nM of rapamycin, a well-known immunosuppressive drug for 5 days. In the rapamycin+PHA group, the PBMCs were activated with 5 μg/mL of PHA and treated with 100 nM of rapamycin for 5 days. […] IFN-γ is typically produced in lymphocytes stimulated by PHA and may be used as marker of PBMC stimulation level. IL-10 is an anti-inflammatory cytokine. The cells from each of the experimental groups were processed for total RNA isolation, reverse transcription of the RNA and RT-qPCR. Data is represented as relative expression normalized to ubiquitous gene expression and untreated PBMC negative control.

phytohaemagglutinin [PHA]
relative PBMC proliferation, % of negative control [1]: about 130% | relative expression level of IFN-γ vs negative control [2]: about 15 fold | relative expression level of IL-10 (negative control = 1) [2]: near zero
